These results are taken from patent US11466033B2 (ENANTA PHARMACEUTICALS, INC., priority 2019, dated 2022).

Sequence of ASK1 (Q99683 whole entry): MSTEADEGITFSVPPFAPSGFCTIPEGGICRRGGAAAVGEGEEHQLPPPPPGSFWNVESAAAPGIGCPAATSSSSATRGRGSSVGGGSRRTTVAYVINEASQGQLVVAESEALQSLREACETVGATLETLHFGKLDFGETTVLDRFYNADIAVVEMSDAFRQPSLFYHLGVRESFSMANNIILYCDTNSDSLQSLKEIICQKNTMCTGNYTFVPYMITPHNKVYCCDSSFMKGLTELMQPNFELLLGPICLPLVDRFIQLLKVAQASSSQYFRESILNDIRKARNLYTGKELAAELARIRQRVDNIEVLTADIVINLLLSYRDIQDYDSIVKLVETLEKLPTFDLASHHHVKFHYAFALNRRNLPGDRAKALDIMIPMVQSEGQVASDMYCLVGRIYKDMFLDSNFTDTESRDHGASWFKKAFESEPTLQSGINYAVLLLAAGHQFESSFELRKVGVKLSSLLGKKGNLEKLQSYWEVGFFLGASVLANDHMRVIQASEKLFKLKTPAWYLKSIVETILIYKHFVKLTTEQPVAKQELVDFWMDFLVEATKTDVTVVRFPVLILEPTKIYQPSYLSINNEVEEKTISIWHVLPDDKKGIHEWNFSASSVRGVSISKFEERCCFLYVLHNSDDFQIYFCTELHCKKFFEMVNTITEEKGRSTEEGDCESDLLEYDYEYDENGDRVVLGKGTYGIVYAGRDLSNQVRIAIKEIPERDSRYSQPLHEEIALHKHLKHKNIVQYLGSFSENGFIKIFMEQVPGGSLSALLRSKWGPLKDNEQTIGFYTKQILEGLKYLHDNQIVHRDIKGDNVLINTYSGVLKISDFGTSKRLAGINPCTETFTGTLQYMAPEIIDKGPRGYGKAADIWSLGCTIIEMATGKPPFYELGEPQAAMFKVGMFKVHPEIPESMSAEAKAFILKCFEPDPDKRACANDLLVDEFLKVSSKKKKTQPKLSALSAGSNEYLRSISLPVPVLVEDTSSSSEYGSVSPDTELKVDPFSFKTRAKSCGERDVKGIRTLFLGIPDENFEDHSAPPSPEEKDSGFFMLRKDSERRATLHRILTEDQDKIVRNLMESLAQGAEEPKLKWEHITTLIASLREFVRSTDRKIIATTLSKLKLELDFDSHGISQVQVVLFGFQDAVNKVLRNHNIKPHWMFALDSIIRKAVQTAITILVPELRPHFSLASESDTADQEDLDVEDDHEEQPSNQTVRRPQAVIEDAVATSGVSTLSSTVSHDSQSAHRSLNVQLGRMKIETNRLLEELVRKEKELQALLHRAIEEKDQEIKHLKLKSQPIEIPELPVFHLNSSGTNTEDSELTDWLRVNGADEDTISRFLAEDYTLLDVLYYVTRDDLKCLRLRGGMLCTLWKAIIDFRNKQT

For this assay, the target named is ASK1 (Homo sapiens (Human), UniProt Q99683). Nature of the assay: HTRF KinEASE assay, inhibition of ASK1. Format: biochemical. Particulars: ASK1 kinase, 100 μM ATP, 1 μM STK3 peptide substrate, TR-FRET. The procedure:
Assay HTRF® KinEASE™ Assay
ASK1 was purchased from Thermofisher (Catalogue #PV4011), ATP was purchased from Sigma (Catalogue #A7699), HTRF® KinEASE™ Assay System was obtained from Cisbio (Bedford, Mass.). ½ Area plate was purchased from Perkin Elmer (Catalogue ##6005560). HTRF® KinEASE™-STK is a generic method for measuring serine/threonine kinase activities using a time-resolved fluorescence resonance energy transfer (TR-FRET) immunoassay. The IC50 value for each compound was determined in the presence of compound (various concentration from 0 to 10 μM) and a fixed amount of ATP and peptide substrates. The test compound, 1 μM STK3 peptide substrate, and […] of ASK1 kinase are incubated with kinase reaction buffer containing 50 mM HEPES Ph 7.5, 0.01% BRIJ-35, 10 mM MgCl2, and 1 mM EGTA for 30 minutes. 100 μM ATP is added to start kinase reaction and incubated for 3 hours. The STK3-antibody labeled with Eu^3+-Cryptate and 125 nM streptavidin-XL665 are mixed in a single addition with stop reagents provided by the Cisbio kit used to stop the kinase reaction. Fluorescence is detected using an Envision Multilabeled 2014 reader from PerkinElmer. The Fluorescence is measured at 615 nm (Cryptate) and 665 nm (XL665) and a ratio of 665 nm/615 nm is calculated for each well. The resulting TR-FRET is proportional to the phosphorylation level. Staurosporine was used as the positive control. IC50 was determined by Xlfit 5.3.
By using above method, the inhibition of ASK1 was evaluated for the compounds of Formula (I). Example numbers correspond to those in Table 6.
(In general: TR-FRET usually uses a lanthanide donor and a delayed reading to cut background.)
Usually IC50 stands for the concentration that inhibits the measured activity by half. In the case of `COc1cc2c(cc1C(=O)Nc1cccc(-c3nnc4n3C(C)(C)CC4)n1)CN(C(=O)C(C)(C)O)CC2` [Example 20, N-(6-(5,5-dimethyl-6,7-dihydro-5H-pyrrolo[2,1-c][1,2,4]triazol-3-yl)pyridin-2-yl)-2-(2-hydroxy-2-methylpropanoyl)-6-methoxy-1,2,3,4-tetrahydroisoquinoline-7-carboxamide], the IC50 is < 1.25 nM.
In turn, `CCOC(=O)N1CCc2cc(F)c(C(=O)Nc3cccc(-c4nnc5n4[C@H](C)CC5)n3)cc2C1` [Example 12] gave an IC50 of 1.25 to 10 nM.
In turn, `CCOC(=O)N1CCc2cc(OC)c(C(=O)Nc3cccc(-c4nnc5n4CCC5)n3)cc2C1` [Example 21, Ethyl 7-((6-(6,7-dihydro-5H-pyrrolo[2,1-c][1,2,4]triazol-3-yl)pyridin-2-yl)carbamoyl)-6-methoxy-3,4-dihydroisoquinoline-2(1H)-carboxylate] showed an IC50 of 1.25 to 10 nM.
Compound `COc1cc2c(cc1C(=O)Nc1cccc(-c3nnc4n3C(C)(C)CC4)n1)CN(C(=O)OC(C)(C)C)CC2` [Example 14, tert-butyl 7-((6-(5,5-dimethyl-6,7-dihydro-5H-pyrrolo[2,1-c][1,2,4]triazol-3-yl)pyridin-2-yl)carbamoyl)-6-methoxy-3,4-dihydroisoquinoline-2(1H)-carboxylate] returned an IC50 of 1.25 to 10 nM.
On to `COc1cc2c(cc1C(=O)Nc1cccc(-c3nnc4n3C(C)(C)CC4)n1)CN(C(=O)C(C)(C)CO)CC2` [Example 17, N-(6-(5,5-dimethyl-6,7-dihydro-5H-pyrrolo[2,1-c][1,2,4]triazol-3-yl)pyridin-2-yl)-2-(3-hydroxy-2,2-dimethylpropanoyl)-6-methoxy-1,2,3,4-tetrahydroisoquinoline-7-carboxamide], for which the IC50 is < 1.25 nM.
For the compound `COCCC(=O)N1CCc2cc(OC)c(C(=O)Nc3cccc(-c4nnc5n4C(C)(C)CC5)n3)cc2C1` [Example 16, N-(6-(5,5-dimethyl-6,7-dihydro-5H-pyrrolo[2,1-c][1,2,4]triazol-3-yl)pyridin-2-yl)-6-methoxy-2-(3-methoxypropanoyl)-1,2,3,4-tetrahydroisoquinoline-7-carboxamide], the IC50 was < 1.25 nM.
In the case of `CCOC(=O)N1CCc2cc(F)c(C(=O)Nc3cccc(-c4nnc5n4C(C)(C)CC5)n3)cc2C1` [Example 11, Ethyl 7-((6-(5,5-dimethyl-6,7-dihydro-5H-pyrrolo[2,1-c][1,2,4]triazol-3-yl)pyridin-2-yl)carbamoyl)-6-fluoro-3,4-dihydroisoquinoline-2(1H)-carboxylate], the concentration for half-maximal inhibition (IC50) lay in the range of 1.25 to 10 nM.
As for `COc1cc2c(cc1C(=O)Nc1cccc(-c3nnc4n3C(C)(C)CC4)n1)CN(C(=O)[C@@H](O)CC(C)C)CC2` [Example 19, (S)—N-(6-(5,5-dimethyl-6,7-dihydro-5H-pyrrolo[2,1-c][1,2,4]triazol-3-yl)pyridin-2-yl)-2-(2-hydroxy-4-methylpentanoyl)-6-methoxy-1,2,3,4-tetrahydroisoquinoline-7-carboxamide], the IC50 is < 1.25 nM.
Next, `CCOC(=O)N1CCc2cc(F)c(C(=O)Nc3cccc(-c4nnc5n4[C@@H](C)CC5)n3)cc2C1` [Example 13]: 10 to 100 nM; `COc1cc2c(cc1C(=O)Nc1cccc(-c3nnc4n3C(C)(C)CC4)n1)CN(C(=O)C[C@H](C)O)CC2` [Example 18, (S)—N-(6-(5,5-dimethyl-6,7-dihydro-5H-pyrrolo[2,1-c][1,2,4]triazol-3-yl)pyridin-2-yl)-2-(3-hydroxybutanoyl)-6-methoxy-1,2,3,4-tetrahydroisoquinoline-7-carboxamide]: < 1.25 nM.
Consider `CCOC(=O)N1CCc2cnc(C(=O)Nc3cccc(-c4nnc5n4[C@H](C)CC5)n3)cc2C1` [Example 15], for which the IC50 was in the range of 1.25 to 10 nM.
